Read-outs that look alike come from different tables or passages of the source. No end group written: not given here.
Assays:
Test in all cases: biochemical
Assay type in all cases: binding
HLA-DR DRB4*0101 (DR53) = HLA-DR DRB4*0101 (DR53) (Homo sapiens, UniProt P01903+P13762, G164S); details: DRB4 *0101
HLA-DR DRB1*0101 (DR1) = HLA-DR DRB1*0101 (DR1) (Homo sapiens, UniProt P01903+P01911, A100R/D57E/F55L/F60I/F76Y/I96L/L162R/M171V/P40L/Q125E/R42F/V115G/Y59C)
HLA-DR DRB1*0401 (DR4) = HLA-DR DRB1*0401 (DR4) (Homo sapiens, UniProt P01903+P01911, A100K/A169T/F76Y/I96L/K127E/L162R/M171V/N62H/P40V/Q125Y/R42H/S133A/S149N/S66Y/V115G/V209L/W38E)
HLA-DR DRB1*0701 (DR7) = HLA-DR DRB1*0701 (DR7) (Homo sapiens, UniProt P01903+P01911, A100R/A102G/A103Q/D57E/D86V/E43K/F76Y/K127E/L162R/M171V/P40G/Q125H/Q99D/R33Q/R42Y/R54Q/S133A/S66F/T210M/V115G/Y107V/Y59L/Y89S)
HLA-DR DRB1*1501 (DR15) = HLA-DR DRB1*1501 (DR15) (Homo sapiens, UniProt P01903+P01911); details: DRBI *1501
HLA-DR DRB5*0101 (DR51) = HLA-DR DRB5*0101 (DR51) (Homo sapiens, UniProt P01903+Q30154); details: DRB5 *0101
HLA-DR DRB1*0802 (DR8) = HLA-DR DRB1*0802 (DR8) (Homo sapiens, UniProt P01903+P01911, A100R/A103L/A169T/F76Y/H45Y/I96F/K41T/L162R/M171V/P40S/Q125H/Q178H/Q39Y/Q99D/R218S/R42G/S66Y/V115G/W38E)
HLA-DR DRB1*0301 (DR3) = HLA-DR DRB1*0301 (DR3) (Homo sapiens, UniProt P01903+P01911, A100K/A102G/A103R/A169T/F55Y/I96L/K41T/L162R/M171V/P40S/Q125H/Q178H/Q39Y/R42S/S66N/T106N/T262R/W38E/Y61H)
HLA-DR DRB1*0901 (DR9) = HLA-DR DRB1*0901 (DR9) (Homo sapiens, UniProt P01903+P01911, A100R/A103E/D57H/D86V/F55Y/F60I/F76Y/I96F/K127E/L162R/M171V/P40D/Q125H/Q99R/R33Q/R42F/S133A/S66N/T210M/V115G/W38K/Y107V/Y59G/Y89S)
HLA-DR DRB1*1101 (DR11) = HLA-DR DRB1*1101 (DR11) (Homo sapiens, UniProt P01903+P01911, A100R/A169T/A87E/I96F/K41T/L162R/M171V/P40S/Q125H/Q178H/Q39Y/Q99D/R42S/S66Y/T262R/V115G/W38E); details: DRB1 *1101
HLA-DR DRB1*1302 (DR13) = HLA-DR DRB1*1302 (DR13) (Homo sapiens, UniProt P01903+P01911, A100E/A169T/K41T/L162R/M171V/P40S/Q125H/Q178H/Q39Y/Q99D/R42S/S66N/T262R/V115G/W38E/Y61H); details: DRBI *1302
Chain of HLA-DR DRB1*1302 (DR13) (P01903 26-254 limits assumed, other chains not shown): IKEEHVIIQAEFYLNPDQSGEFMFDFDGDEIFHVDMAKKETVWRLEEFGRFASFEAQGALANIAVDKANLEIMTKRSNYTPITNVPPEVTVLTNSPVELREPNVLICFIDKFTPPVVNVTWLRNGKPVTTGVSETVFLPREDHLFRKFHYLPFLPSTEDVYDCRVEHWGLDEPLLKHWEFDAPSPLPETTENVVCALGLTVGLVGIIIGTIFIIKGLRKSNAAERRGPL

Chain of HLA-DR DRB1*0301 (DR3) (P01903 26-254 limits assumed, other chains not shown): as above
Chain of HLA-DR DRB1*1101 (DR11) (P01903 26-254 limits assumed, other chains not shown): as above

Compound | IC50 (HLA-DR DRB4*0101 (DR53)) [µM] | IC50 (HLA-DR DRB1*0101 (DR1); DRB1 *0101) [µM] | IC50 (HLA-DR DRB1*0401 (DR4); DRB1 *0401) [µM] | IC50 (HLA-DR DRB1*0701 (DR7); DRB1 *0701) [µM] | IC50 (HLA-DR DRB1*1501 (DR15)) [µM] | IC50 (HLA-DR DRB5*0101 (DR51)) [µM] | IC50 (HLA-DR DRB1*0301 (DR3)) [µM] | IC50 (HLA-DR DRB1*0901 (DR9); DRB1 *0901) [µM] | IC50 (HLA-DR DRB1*1302 (DR13)) [µM] | IC50 (HLA-DR DRB1*0901 (DR9); read-out: DRB1 *0901) [µM] | IC50 (HLA-DR DRB1*0101 (DR1); read-out: DRB1 *0101) [µM] | IC50 (HLA-DR DRB1*0401 (DR4); read-out: DRB1 *0401) [µM] | IC50 (HLA-DR DRB1*0701 (DR7); read-out: DRB1 *0701) [µM] | also measured
ILFLVKMNALRRLPV | 0.0076 | 0.0008 | 0.0056 | 0.056 | 0.0014 | 0.014 |  |  |  |  |  |  |  | IC50 (HLA-DR DRB1*0802 (DR8)): 0.019 µM
CC[C@H](C)[C@H](N)C(=O)N[C@@H](CCCNC(=N)N)C(=O)N[C@H](C(=O)N[C@@H](CC(C)C)C(=O)N[C@@H](CCC(N)=O)C(=O)N[C@@H](CCC(=O)O)C(=O)N[C@@H](CC(C)C)C(=O)N[C@@H](CC(C)C)C(=O)N[C@@H](CCSC)C(=O)NCC(=O)N[C@@H](CO)C(=O)N[C@@H](Cc1ccccc1)C(=O)NCC(=O)N[C@H](C(=O)N[C@H](C(=O)O)C(C)C)[C@@H](C)CC)[C@@H](C)CC | 0.017 | 0.067 | 0.724 | 2 | 0.294 | > 55.1 | 31.8 | 0.271 | 1.04 |  |  |  |  | IC50 (HLA-DR DRB1*1101 (DR11)): 7.98 µM
VLDLYPEPTDLYCYE | 0.018 | 11.2 | 0.203 | > 72.3 | 21.6 | > 15.3 | 0.121 | > 32.2 | > 12 |  |  |  |  | IC50 (HLA-DR DRB1*1101 (DR11)): > 15.2 µM
LEDLLMGTLGIVCP |  |  |  |  |  |  |  |  |  | 1.99 |  |  |  | 
FPTIPLSRLFDNAM |  |  |  |  |  |  |  |  |  | 15 | 6.92 | 9.46 | 5.53 | IC50 (HLA-DR DRB1*0301 (DR3); read-out: DRB1 *0301): 46.7 µM
RIVYRDGNPFAVCKV |  |  | 0.019 |  | 0.081 |  | 0.144 | 4.96 | 0.122 |  |  |  |  | 
YGIIVPVLTSLFNKV |  |  |  |  |  |  |  |  |  |  | 0.006 | 0.002 | 0.06 | IC50 (HLA-DR DRB1*0802 (DR8); read-out: DRB1 *0802): 0.793 µM
VRTLQQLLMQTCTIV |  |  |  |  |  |  |  |  |  | 0.496 | 0.036 | 0.322 | 1.82 | 
MIMIKFMGVIYIMII |  | 2.9 | 0.312 | 68 |  |  |  |  |  |  |  |  |  | IC50 (HLA-DR DRB1*0802 (DR8)): 66.1 µM
LGFLQRSSNTQTQK |  |  |  |  |  |  |  |  |  | 1.34 |  | 0.018 | 0.42 | 

From patent US20060079453A1, “Hla binding peptides and their uses” (priority 2002, published 2006)
